Test results as given in PubChem BioAssay (NCI).
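Briefly, cells in 96-well plates were exposed to five compound concentrations for 48 h, and endpoints were estimated by linear interpolation. At the TGI there is no net growth.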

Key:
Assay in all cases: NCI-60 cell line screen, 48 h
SNB-19 CNS = tested on: SNB-19 CNS
NCI-H23 lung = tested on: NCI-H23 lung
MCF7 breast = tested on: MCF7 breast
MALME-3M melanoma = tested on: MALME-3M melanoma
MDA-MB-231 breast = tested on: MDA-MB-231 breast
ACHN renal = tested on: ACHN renal
SW-620 colon = tested on: SW-620 colon
OVCAR-5 ovarian = tested on: OVCAR-5 ovarian
IGROV1 ovarian = tested on: IGROV1 ovarian
EKVX NSCLC = tested on: EKVX NSCLC
OVCAR-4 ovarian = tested on: OVCAR-4 ovarian
M14 melanoma = tested on: M14 melanoma
OVCAR-3 ovarian = tested on: OVCAR-3 ovarian
HOP-92 NSCLC = tested on: HOP-92 NSCLC
SF-295 CNS = tested on: SF-295 CNS
A498 renal = tested on: A498 renal
SR leukemia = tested on: SR leukemia
SK-MEL-5 melanoma = tested on: SK-MEL-5 melanoma
CAKI-1 renal = tested on: CAKI-1 renal
HCT-116 colon = tested on: HCT-116 colon
SK-MEL-2 melanoma = tested on: SK-MEL-2 melanoma
786-0 renal = tested on: 786-0 renal
MOLT-4 leukemia = tested on: MOLT-4 leukemia
LOX IMVI melanoma = tested on: LOX IMVI melanoma
CCRF-CEM leukemia = tested on: CCRF-CEM leukemia
SK-MEL-28 melanoma = tested on: SK-MEL-28 melanoma
SF-539 CNS = tested on: SF-539 CNS
MDA-MB-435 = tested on: MDA-MB-435
UACC-62 melanoma = tested on: UACC-62 melanoma
DU-145 prostate = tested on: DU-145 prostate
NCI-H522 lung = tested on: NCI-H522 lung
NCI/ADR-RES ovarian = tested on: NCI/ADR-RES ovarian
UO-31 renal = tested on: UO-31 renal
U251 CNS = tested on: U251 CNS
A549 NSCLC = tested on: A549 NSCLC
NCI-H226 lung = tested on: NCI-H226 lung
COLO 205 colon = tested on: COLO 205 colon
SF-268 CNS = tested on: SF-268 CNS
PC-3 prostate = tested on: PC-3 prostate
KM12 colon = tested on: KM12 colon
SN12C renal = tested on: SN12C renal
HCT-15 colon = tested on: HCT-15 colon
MDA-N = tested on: MDA-N
HL-60(TB) leukemia = tested on: HL-60(TB) leukemia
TK-10 renal = tested on: TK-10 renal
SK-OV-3 ovarian = tested on: SK-OV-3 ovarian
NCI-H460 lung = tested on: NCI-H460 lung
HT29 colon = tested on: HT29 colon
HOP-62 NSCLC = tested on: HOP-62 NSCLC
T-47D breast = tested on: T-47D breast
BT-549 breast = tested on: BT-549 breast
HS 578T breast = tested on: HS 578T breast
K-562 leukemia = tested on: K-562 leukemia
RPMI-8226 leukemia = tested on: RPMI-8226 leukemia
RXF 393 renal = tested on: RXF 393 renal
OVCAR-8 ovarian = tested on: OVCAR-8 ovarian
SNB-75 CNS = tested on: SNB-75 CNS
HCC-2998 colon = tested on: HCC-2998 colon
UACC-257 melanoma = tested on: UACC-257 melanoma

**Q.** What does the source list for `CSc1c(CC(=O)Nc2ccc(Cl)cc2)n(Cc2ccccc2)c2ccccc12`?
**A.** TGI (SNB-19 CNS): > 100 µM; TGI (NCI-H23 lung): > 100 µM; TGI (MCF7 breast): > 100 µM; TGI (MALME-3M melanoma): > 100 µM; TGI (MDA-MB-231 breast): 39.3 µM; TGI (ACHN renal): > 100 µM; TGI (SW-620 colon): > 100 µM; TGI (OVCAR-5 ovarian): > 100 µM; TGI (IGROV1 ovarian): > 100 µM; TGI (EKVX NSCLC): > 100 µM; TGI (OVCAR-4 ovarian): 35.5 µM; TGI (M14 melanoma): > 100 µM; TGI (OVCAR-3 ovarian): > 100 µM; TGI (HOP-92 NSCLC): 42.8 µM; TGI (SF-295 CNS): > 100 µM; TGI (A498 renal): 25.9 µM; TGI (SR leukemia): > 100 µM; TGI (SK-MEL-5 melanoma): > 100 µM; TGI (CAKI-1 renal): > 100 µM; TGI (HCT-116 colon): > 100 µM; TGI (SK-MEL-2 melanoma): 51.3 µM; TGI (786-0 renal): 30.3 µM; TGI (MOLT-4 leukemia): > 100 µM; TGI (LOX IMVI melanoma): > 100 µM; TGI (CCRF-CEM leukemia): > 100 µM; TGI (SK-MEL-28 melanoma): > 100 µM; TGI (SF-539 CNS): 9.6 µM; TGI (MDA-MB-435): > 100 µM; TGI (UACC-62 melanoma): > 100 µM; TGI (DU-145 prostate): > 100 µM; TGI (NCI-H522 lung): > 100 µM; TGI (NCI/ADR-RES ovarian): > 100 µM; TGI (UO-31 renal): > 100 µM; TGI (U251 CNS): 25 µM; TGI (A549 NSCLC): > 100 µM; TGI (NCI-H226 lung): 71.8 µM; TGI (COLO 205 colon): > 100 µM; TGI (SF-268 CNS): > 100 µM; TGI (PC-3 prostate): 27.7 µM; TGI (KM12 colon): > 100 µM; TGI (SN12C renal): > 100 µM; TGI (HCT-15 colon): > 100 µM; TGI (MDA-N): > 100 µM; TGI (HL-60(TB) leukemia): > 100 µM; TGI (TK-10 renal): 57.4 µM; TGI (SK-OV-3 ovarian): > 100 µM; TGI (NCI-H460 lung): > 100 µM; TGI (HT29 colon): > 100 µM; TGI (HOP-62 NSCLC): > 100 µM; TGI (T-47D breast): > 100 µM; TGI (BT-549 breast): 46.9 µM; TGI (HS 578T breast): 69.4 µM; TGI (K-562 leukemia): > 100 µM; TGI (RPMI-8226 leukemia): > 100 µM; TGI (RXF 393 renal): 30.1 µM; TGI (OVCAR-8 ovarian): 41 µM; TGI (SNB-75 CNS): 33.1 µM; TGI (HCC-2998 colon): 88 µM; TGI (UACC-257 melanoma): > 100 µM

**Q.** How did the TGI (SNB-19 CNS) turn out when `NC(=O)c1c(NC=O)ncn1C1OCC(O)C(O)C1O` (stereo not drawn) was run?
**A.** The TGI was greater than 100 µM.

**Q.** What about the TGI (NCI-H23 lung) of the same compound?
**A.** The TGI was greater than 100 µM.

**Q.** What about the TGI (MALME-3M melanoma) of the same compound?
**A.** Its TGI is greater than 100 µM.

**Q.** And the TGI (MDA-MB-231 breast)?
**A.** Its TGI is greater than 100 µM.

**Q.** And the TGI (ACHN renal)?
**A.** Its TGI is greater than 100 µM.

**Q.** And the TGI (SW-620 colon)?
**A.** Its TGI is greater than 100 µM.

**Q.** And the TGI (OVCAR-5 ovarian)?
**A.** Its TGI is greater than 100 µM.

**Q.** And the TGI (IGROV1 ovarian)?
**A.** Its TGI is greater than 100 µM.

**Q.** What about the TGI (EKVX NSCLC) of the same compound?
**A.** Its TGI is greater than 100 µM.

**Q.** And the TGI (OVCAR-4 ovarian)?
**A.** The TGI was greater than 100 µM.

**Q.** What about the TGI (OVCAR-3 ovarian) of the same compound?
**A.** Its TGI is greater than 100 µM.

**Q.** What about the TGI (HOP-92 NSCLC) of the same compound?
**A.** The TGI was greater than 100 µM.

**Q.** What about the TGI (SF-295 CNS) of the same compound?
**A.** Its TGI is greater than 100 µM.

**Q.** What about the TGI (SR leukemia) of the same compound?
**A.** The TGI was greater than 100 µM.

**Q.** What about the TGI (SK-MEL-5 melanoma) of the same compound?
**A.** Its TGI is greater than 100 µM.

**Q.** And the TGI (CAKI-1 renal)?
**A.** Its TGI is greater than 100 µM.

**Q.** And the TGI (HCT-116 colon)?
**A.** Its TGI is greater than 100 µM.

**Q.** And the TGI (SK-MEL-2 melanoma)?
**A.** The TGI was greater than 100 µM.

**Q.** And the TGI (786-0 renal)?
**A.** Its TGI is greater than 100 µM.

**Q.** What about the TGI (MOLT-4 leukemia) of the same compound?
**A.** The TGI was greater than 100 µM.

**Q.** And the TGI (LOX IMVI melanoma)?
**A.** Its TGI is greater than 100 µM.

**Q.** What about the TGI (CCRF-CEM leukemia) of the same compound?
**A.** The TGI was greater than 100 µM.

**Q.** And the TGI (SF-539 CNS)?
**A.** Its TGI is greater than 100 µM.

**Q.** And the TGI (MDA-MB-435)?
**A.** The TGI was greater than 100 µM.

**Q.** And the TGI (UACC-62 melanoma)?
**A.** Its TGI is greater than 100 µM.

**Q.** What about the TGI (DU-145 prostate) of the same compound?
**A.** The TGI was greater than 100 µM.

**Q.** What about the TGI (NCI-H522 lung) of the same compound?
**A.** The TGI was greater than 100 µM.

**Q.** What about the TGI (NCI/ADR-RES ovarian) of the same compound?
**A.** The TGI was greater than 100 µM.

**Q.** What about the TGI (UO-31 renal) of the same compound?
**A.** Its TGI is greater than 100 µM.

**Q.** And the TGI (U251 CNS)?
**A.** The TGI was greater than 100 µM.

**Q.** And the TGI (A549 NSCLC)?
**A.** The TGI was greater than 100 µM.

**Q.** And the TGI (NCI-H226 lung)?
**A.** Its TGI is greater than 100 µM.

**Q.** And the TGI (COLO 205 colon)?
**A.** Its TGI is greater than 100 µM.

**Q.** What about the TGI (SF-268 CNS) of the same compound?
**A.** The TGI was greater than 100 µM.

**Q.** What about the TGI (PC-3 prostate) of the same compound?
**A.** Its TGI is greater than 100 µM.

**Q.** And the TGI (KM12 colon)?
**A.** The TGI was greater than 100 µM.

**Q.** What about the TGI (SN12C renal) of the same compound?
**A.** Its TGI is greater than 100 µM.

**Q.** What about the TGI (HCT-15 colon) of the same compound?
**A.** The TGI was greater than 100 µM.

**Q.** And the TGI (MDA-N)?
**A.** Its TGI is greater than 100 µM.

**Q.** And the TGI (HL-60(TB) leukemia)?
**A.** The TGI was greater than 100 µM.

**Q.** And the TGI (TK-10 renal)?
**A.** The TGI was greater than 100 µM.

**Q.** What about the TGI (SK-OV-3 ovarian) of the same compound?
**A.** The TGI was greater than 100 µM.

**Q.** What about the TGI (NCI-H460 lung) of the same compound?
**A.** The TGI was greater than 100 µM.

**Q.** And the TGI (HT29 colon)?
**A.** The TGI was greater than 100 µM.

**Q.** What about the TGI (HOP-62 NSCLC) of the same compound?
**A.** The TGI was greater than 100 µM.

**Q.** And the TGI (T-47D breast)?
**A.** The TGI was greater than 100 µM.

**Q.** What about the TGI (BT-549 breast) of the same compound?
**A.** The TGI was greater than 100 µM.

**Q.** And the TGI (HS 578T breast)?
**A.** Its TGI is greater than 100 µM.

**Q.** And the TGI (K-562 leukemia)?
**A.** Its TGI is greater than 100 µM.

**Q.** What about the TGI (RPMI-8226 leukemia) of the same compound?
**A.** Its TGI is greater than 100 µM.

**Q.** What about the TGI (RXF 393 renal) of the same compound?
**A.** The TGI was greater than 100 µM.

**Q.** And the TGI (OVCAR-8 ovarian)?
**A.** Its TGI is greater than 100 µM.

**Q.** And the TGI (SNB-75 CNS)?
**A.** The TGI was greater than 100 µM.

**Q.** And the TGI (UACC-257 melanoma)?
**A.** The TGI was greater than 100 µM.
